For experiment [1], the target named is T1, mechanosensitive channel of large conductance (MscL) (Mycobacterium tuberculosis, UniProt P9WJN5).
T1 sequence (P9WJN5 1-151): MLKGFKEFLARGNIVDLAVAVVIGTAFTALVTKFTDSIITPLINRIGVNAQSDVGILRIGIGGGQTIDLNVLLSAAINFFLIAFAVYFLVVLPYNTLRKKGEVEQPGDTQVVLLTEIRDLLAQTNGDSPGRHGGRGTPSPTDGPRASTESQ
Put plainly: Phospholipid binding to MscL resolved by native MS / IM-MS in C8E4. As to conditions: optimised P:L:D ratio of Table 2.

Experiment [2] addresses T2, ammonia channel (AmtB) (Escherichia coli, UniProt P69681). Briefly: Gas-phase (collision-induced) unfolding IM-MS: stabilisation of AmtB by bound phospholipid. Type of experiment: binding, E. coli. As to conditions: +15 charge state, versus apo form. How it is done: (§1) IM-MS was used to resolve individual phospholipid-bound states of membrane proteins, in folded conformations, devoid of the complication of the lipid bilayer. Bound phospholipids were then ranked based on their ability to prevent gas-phase unfolding. Combining the IM-MS data for the three protein complexes with molecular dynamic (MD) simulations, probable lipid binding sites were then identified.
Ion mobility measurements were performed on a modified Synapt G1 HDMS instrument with the travelling-wave on mobility cell replaced by an 18-cm drift cell with radial RF on confinement and a linear voltage gradient to direct ions along the axis of transmission to the time-of-flight (TOF) mass analyser. Ion mobility mass spectrometer was typically set to a source pressure of 5-7 mBar, capillary voltage of 1.4-1.7 kV, capillary nanoflow of 0.03-0.2 mBar and argon as collision gas with flow rate set to 5-8 mL/min (˜6.6-6.7 e-2 mBar). Collision voltage ranged from 2-240 V with measurements taken at 5 V and 2 V steps for monitoring gas-phase unfolding of membrane and soluble protein complexes, respectively. The sample and extraction cone and trap bias voltages, quadrupole profile, and collision gas pressure were optimized for maximal ion intensity of the target membrane protein complex. Helium was the drift cell gas and set to a pressure of ˜1.6-1.8 Torr (40 ml/min flow rate). Pusher time, pulse width and TDC inhibit were set to 180, 7 and 7 μs, respectively. The ion guide/source (300 ms^−1, 10 V), trap (300 ms^−1, 0.2 V) and transfer (100 ms^−1, 10 V) travelling wave velocities and wave heights were kept constant. The mobility release time was set at 200 μs with a trap voltage of 30 V and extract voltage of 10 V. Pressure and temperature of the ion mobility cell was measured directly. Ion drift time (td) was determined as described in Bush et al (Analytical Chemistry, 2010, 82, 9557-.9565).
Ion mobility data were imported using a custom script provided by Waters at an m/z resolution of four in drift data and one in mass spectra for fitting. Mass spectra were smoothed and theoretical mass spectra were fitted as outlined above. A standardized integration window was employed for extracting arrival time distributions (ATD) using a resolution (R=[…]) of 1000 and a height cut-off of 25% for the modelled Gaussian to the respective m/z peak. […]
To extract quantitative values for the effects of phospholipid binding on unfolding pathways, an established equilibrium unfolding model, used extensively in solution studies involving chemical denaturation, was applied. […] By comparing the apo form of the protein with lipid bound states, the average stabilisation was calculated by fitting the unfolding pathway for the most abundant charge state, identifying four distinct intermediate states. […]

In experiment [3] the target is T3, Aquaporin Z (AQPZ) (Escherichia coli, UniProt P60844). Briefly: Phospholipid binding to AQPZ resolved by native MS / IM-MS in C8E4. Also noted: species or system E. coli. The conditions noted are these: AQPZ in C8E4; optimised P:L:D ratio of Table 2.
T3 sequence (P60844 whole entry): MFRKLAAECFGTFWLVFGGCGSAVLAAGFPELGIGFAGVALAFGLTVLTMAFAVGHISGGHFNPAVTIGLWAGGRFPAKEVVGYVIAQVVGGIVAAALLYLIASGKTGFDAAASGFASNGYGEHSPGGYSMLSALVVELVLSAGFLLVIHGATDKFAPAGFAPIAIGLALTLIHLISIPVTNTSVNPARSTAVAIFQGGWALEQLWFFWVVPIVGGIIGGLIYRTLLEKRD
Experiment [4] has as its target T2, ammonia channel (AmtB). Put plainly: Phospholipid binding to AmtB resolved by native MS / IM-MS in C8E4. Also noted: species or system E. coli. As to conditions: for # Bound (number of resolvable phospholipids bound): AmtB in C8E4, optimised P:L:D ratio of Table 2; for extent of phospholipid binding to AmtB: in words, co-transport into the gas phase.
Experiment [5] has as its target T3, Aquaporin Z (AQPZ). Briefly: Gas-phase (collision-induced) unfolding IM-MS: stabilisation of AQPZ by bound phospholipid. Type of experiment: binding, E. coli. The conditions noted are these: +13 charge state, versus apo form. How it is done:
as §1
Ion mobility measurements were performed on a modified Synapt G1 HDMS instrument with the travelling-wave on mobility cell replaced by an 18-cm drift cell with radial RF on confinement and a linear voltage gradient to direct ions along the axis of transmission to the time-of-flight (TOF) mass analyser. […] The mobility release time was set at 200 μs with a trap voltage of 30 V and extract voltage of 10 V. Pressure and temperature of the ion mobility cell was measured directly. Ion drift time (td) was determined as described in Bush et al (Analytical Chemistry, 2010, 82, 9557-.9565). […]
To extract quantitative values for the effects of phospholipid binding on unfolding pathways, an established equilibrium unfolding model, used extensively in solution studies involving chemical denaturation, was applied. […]

“Also recorded” adds a separate entry of the source.

T2 sequence (P69681 26-428): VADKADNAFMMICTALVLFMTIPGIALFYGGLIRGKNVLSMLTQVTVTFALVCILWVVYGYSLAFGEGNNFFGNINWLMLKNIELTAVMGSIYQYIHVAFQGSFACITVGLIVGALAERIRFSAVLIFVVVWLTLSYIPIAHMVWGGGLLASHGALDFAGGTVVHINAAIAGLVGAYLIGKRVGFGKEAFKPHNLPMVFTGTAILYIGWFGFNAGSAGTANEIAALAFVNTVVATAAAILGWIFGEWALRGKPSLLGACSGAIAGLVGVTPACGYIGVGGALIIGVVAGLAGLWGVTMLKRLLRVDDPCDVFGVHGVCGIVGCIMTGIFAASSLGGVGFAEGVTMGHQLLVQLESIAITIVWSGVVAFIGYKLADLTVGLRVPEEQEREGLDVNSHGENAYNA

`CCCCCCCC/C=C\CCCCCCCC(=O)O[C@H](COC(=O)CCCCCCCCCCCCCCC)COP(=O)(O)O` [PA, 1-palrnitoyl-2-oleoyl-sn-glycero-3-phosphate (16:0-18:1)]: the results for the “# Bound (number of resolvable phospholipids bound)” value (“# Bound” below) (in experiment [1]; at Aquaporin Z (AQPZ) [3]; on ammonia channel (AmtB) [4]) were 1, 2 and 3, respectively. The “average stabilisation of AmtB by bound phospholipid (resistance to gas-phase unfolding)” value on ammonia channel (AmtB) [2] is reported as “not correlated with significant stabilisation”. Besides, the “extent of phospholipid binding to AmtB” value at ammonia channel (AmtB) [4] is “extensive”.
As to `CCCCCCCC/C=C\CCCCCCCC(=O)O[C@H](COC(=O)CCCCCCCCCCCCCCC)COP(=O)(O)OC[C@H](N)C(=O)O` [PS, 1-palmitoyl-2-oleoyl-sn-glycero-3-phospho-L-serine (16:0-18:1)], the “# Bound” value was 2 in experiment [1], 3 at Aquaporin Z (AQPZ) [3] and 3 on ammonia channel (AmtB) [4]. The “average stabilisation of AmtB by bound phospholipid (resistance to gas-phase unfolding)” value at ammonia channel (AmtB) [2] is “not correlated with significant stabilisation”. For the same molecule, on ammonia channel (AmtB) [4], the “extent of phospholipid binding to AmtB” value is listed as “extensive”.
Turning to Cardiolipin (E. coli) [CDL], the “# Bound” value (in experiment [1]; at Aquaporin Z (AQPZ) [3]; at ammonia channel (AmtB) [4]) was 1 throughout. Moreover, the “average stabilisation of AQPZ by bound phospholipid (resistance to gas-phase unfolding)” value at Aquaporin Z (AQPZ) [5] is on record as “substantial increase in protein stability compared to all other phospholipids; also recorded: stabilises AQPZ significantly”. For the same molecule, the “average stabilisation of AmtB by bound phospholipid (resistance to gas-phase unfolding)” value at ammonia channel (AmtB) [2] is on record as “significant stabilisation”. On ammonia channel (AmtB) [4], the “extent of phospholipid binding to AmtB” value is recorded as “only low populations”.
L-α-phosphatidylglycerol (E. coli) [PG]: the “# Bound” value in experiment [1] was 2; at Aquaporin Z (AQPZ) [3], 3; on ammonia channel (AmtB) [4] it was 4. Further, the “average stabilisation of AmtB by bound phospholipid (resistance to gas-phase unfolding)” value at ammonia channel (AmtB) [2] was “dramatic increase in stabilisation; also recorded: significant stabilisation”. Besides, the bound phospholipid molecules result on ammonia channel (AmtB) [4] (AmtB, moderate collision activation 175 V (FIG. 7a)) is reported as “one to four”.
